Measured values reported in US4262013A, “Mevalonolactone derivatives and process for the preparation thereof” (Sankyo Company Limited, priority 1977, dated 1981).
Where two headings read alike, the source gives them in different places.

Columns and labels:
[1] = biological target: T1, 3-hydroxy-3-methylglutaryl coenzyme A reductase (Rattus norvegicus, UniProt P51639); test: Assay Method A: inhibitory activity to cholesterol biosynthesis in vitro, 50% inhibition of the enzyme activity (method of Knauss et al); assay type: biochemical
T1 construct: from tissue
T1 sequence (P51639 1-887): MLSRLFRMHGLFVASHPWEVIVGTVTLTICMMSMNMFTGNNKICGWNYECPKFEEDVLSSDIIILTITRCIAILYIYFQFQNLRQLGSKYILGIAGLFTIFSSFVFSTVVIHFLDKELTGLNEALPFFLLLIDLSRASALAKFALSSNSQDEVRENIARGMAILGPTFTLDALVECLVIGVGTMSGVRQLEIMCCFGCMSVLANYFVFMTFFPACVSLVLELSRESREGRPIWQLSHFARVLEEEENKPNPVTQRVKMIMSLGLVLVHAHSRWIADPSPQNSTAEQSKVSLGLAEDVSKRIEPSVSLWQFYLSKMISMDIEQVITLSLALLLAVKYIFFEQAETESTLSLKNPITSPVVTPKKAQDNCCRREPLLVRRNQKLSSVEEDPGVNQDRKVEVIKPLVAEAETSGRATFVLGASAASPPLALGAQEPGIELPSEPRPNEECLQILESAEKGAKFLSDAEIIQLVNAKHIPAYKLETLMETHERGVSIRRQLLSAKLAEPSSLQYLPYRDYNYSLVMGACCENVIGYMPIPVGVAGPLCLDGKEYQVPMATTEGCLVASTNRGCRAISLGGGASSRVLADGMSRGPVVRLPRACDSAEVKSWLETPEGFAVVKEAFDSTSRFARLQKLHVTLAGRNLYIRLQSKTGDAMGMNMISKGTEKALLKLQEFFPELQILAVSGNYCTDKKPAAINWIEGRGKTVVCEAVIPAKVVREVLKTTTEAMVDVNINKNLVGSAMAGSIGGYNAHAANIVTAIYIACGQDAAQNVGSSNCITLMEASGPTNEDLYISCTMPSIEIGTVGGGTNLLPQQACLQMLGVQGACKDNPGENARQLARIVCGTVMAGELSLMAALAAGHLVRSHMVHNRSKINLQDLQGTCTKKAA

[2] = system: cholesterol biosynthesis in L-cells of mice (929); test: Assay Method B: inhibition of 14C-cholesterol biosynthesis from 14C-acetic acid in L-cells of mice (929) (method of Kandutsch et al); assay type: cell-based; conditions: Mus musculus, mole concentration for 50% inhibition of cholesterol biosynthesis, read-out: ID50 (M) Assay Method B
Source text: The inhibitory activity of these compounds to cholesterol biosynthesis was further evaluated according to the method described in A. A. Kandutsch et al, Journal of Biological Chemistry, 248, 8408 (1973) by measuring the amount of ^14 C-cholesterol biosynthesized from ^14 C-acetic acid using L-cells of mice (929), and the activity was expressed by the mole concentration [I50 (M)] for 50% inhibition of cholesterol biosynthesis (Assay Method B).

[3] = Assay Method A, in vitro, mole concentration for 50% inhibition of the enzyme activity, read-out: ID50 (M) Assay Method A

Row | Compound | IC50 [1, 3] [M] | IC50 [2] [M] | IC50 [1] [M]
1 | CC1(O)CC(=O)OC(c2ccc(-c3ccccc3)cc2)C1 (stereo not drawn) [B, 3-Hydroxy-3-methyl-5-(4-biphenylyl)-5-pentanolide] | 0.0001 | 0.00016 | 
2 | CC1(O)CC(=O)OC(CCc2ccc(OCc3ccc(F)cc3)cc2)C1 (stereo not drawn) [L, 3-Hydroxy-3-methyl-7-[p-(p-fluorobenzyloxy)phenyl]-5-heptanolide] |  | 5e-05 | 
3 | CC1(O)CC(=O)OC(CCc2ccccc2)C1Br (stereo not drawn) [Compound D, 3-Hydroxy-3-methyl-4-bromo-7-phenyl-5-heptanolide] | 0.0001 |  | 
4 | Cc1cc(OCc2ccccc2)cc(C)c1CCC1CC(C)(O)CC(=O)O1 (stereo not drawn) [U, 3-Hydroxy-3-methyl-7-(p-benzyloxy-o,o'-dimethylphenyl)-5-heptanolide] | 3.8e-06 | 5.4e-06 | 
5 | Cc1cc(OC(=O)c2ccccc2)cc(C)c1CCC1CC(C)(O)CC(=O)O1 (stereo not drawn) [X, 3-Hydroxy-3-methyl-7-(p-benzoyloxy-o,o'-dimethylphenyl)-5-heptanolide] | 3.9e-06 | 6.5e-06 | 
6 | Cc1cc(OCc2ccccc2)cc(C)c1CCC1OC(=O)CC(C)(O)C1Br (stereo not drawn) [V, 3-Hydroxy-3-methyl-4-bromo-7-(p-benzyloxy-o,o'-dimethylphenyl)-5-heptanolide] |  | 1e-05 | 
7 | CC1(O)CC(=O)OC(c2ccc(OCc3ccccc3)cc2)C1 (stereo not drawn) [A, 3-Hydroxy-3-methyl-5-(p-benzyloxyphenyl)-5-pentanolide] | 6.2e-05 | 0.00013 | 
8 | CC(=O)OC1(C)CC(=O)OC(CCc2ccc(OCc3ccccc3)cc2)C1 (stereo not drawn) [G, 3-Acetoxy-3-methyl-7-(p-benzyloxyphenyl)-5-heptanolide] | 4.5e-05 | 3.1e-05 | 
9 | CC1(O)CC(=O)OC(CCc2ccc(OCc3ccc(Cl)cc3)cc2)C1 (stereo not drawn) [M, 3-Hydroxy-3-methyl-7-[p-(p-chlorobenzyloxy)phenyl]-5-heptanolide] |  | 1.9e-05 | 
10 | CC1(O)CC(=O)OC(C=Cc2cccc(OCc3ccccc3)c2)C1 (stereo not drawn) [S, 3-Hydroxy-3-methyl-7-(m-benzyloxyphenyl)-6-hepten-5-olide] | 7.1e-05 | 0.00012 | 
11 | CC1(O)CC(=O)OC(CCc2ccccc2OCc2ccccc2)C1 (stereo not drawn) [I, 3-Hydroxy-3-methyl-7-(o-benzyloxyphenyl)-5-heptanolide] | 3.3e-05 | 5e-05 | 
12 | COc1ccc(CCC2CC(C)(O)CC(=O)O2)cc1 (stereo not drawn) [P, 3-Hydroxy-3-methyl-7-(p-methoxyphenyl)-5-heptanolide] | 6.3e-05 |  | 
13 | CC1C(CCc2ccccc2)OC(=O)CC1(C)O (stereo not drawn) [E, 3-Hydroxy-3,4-dimethyl-7-phenyl-5-heptanolide] | 6.7e-05 |  | 
14 | CC1(O)CC(=O)OC(CCc2ccc(O)cc2)C1 (stereo not drawn) [F, 3-Hydroxy-3-methyl-7-(p-hydroxyphenyl)-5-heptanolide] | 6.6e-05 |  | 
15 | CC1(O)CC(=O)OC(CCCc2ccc(OCc3ccccc3)cc2)C1Br (stereo not drawn) [Z, 3-Hydroxy-3-methyl-4-bromo-8-(p-benzyloxyphenyl)-5-octanolide] | 6.7e-06 | 1.2e-05 | 
16 | CC1(O)CC(=O)OC(CCc2ccc(OCc3ccccc3)cc2)C1 (stereo not drawn) [H, 3-Hydroxy-3-methyl-7-(p-benzyloxyphenyl)-5-heptanolide] | 4.2e-06 | 6e-06 | 
17 | CC1C(C=Cc2ccccc2)OC(=O)CC1(C)O (stereo not drawn) [Q, 3-Hydroxy-3,4-dimethyl-7-phenyl-6-hepten-5-olide] | 6.4e-05 |  | 
18 | CC1(O)CC(=O)OC(CCc2ccccc2OCc2ccccc2)C1Br (stereo not drawn) [K, 3-Hydroxy-3-methyl-4-bromo-7-(o-benzyloxyphenyl)-5-heptanolide] | 4.7e-05 | 8.8e-05 | 
19 | CC1(O)CC(=O)OC(CCc2ccc(Cl)cc2)C1 (stereo not drawn) [N, 3-Hydroxy-3-methyl-7-(p-chlorophenyl)-5-heptanolide] | 4.5e-05 | 3e-05 | 
20 | CC1(O)CC(=O)OC(CCc2ccc(OCc3ccccc3)cc2)C1Br (stereo not drawn) [J, 3-Hydroxy-3-methyl-4-bromo-7-(p-benzyloxyphenyl)-5-heptanolide] | 5.6e-06 | 3e-05 | 
21 | CCOC(=O)C(C)(C)Oc1ccc(Cl)cc1 [Clofibrate, reference compound] |  | 8e-05 | 0.001
22 | CC1(O)CC(=O)OC(C=Cc2ccc(OCc3ccccc3)cc2)C1 (stereo not drawn) [R, 3-Hydroxy-3-methyl-7-(p-benzyloxyphenyl)-6-hepten-5-olide] | 8.6e-06 | 1.3e-05 | 
23 | CC1(O)CC(=O)OC(CCc2ccc(Cl)cc2)C1Br (stereo not drawn) [O, 3-Hydroxy-3-methyl-4-bromo-7-(p-chlorophenyl)-5-heptanolide] | 6.3e-05 |  | 
24 | COc1cc(CCC2CC(C)(O)CC(=O)O2)ccc1OCc1ccccc1 (stereo not drawn) [T, 3-Hydroxy-3-methyl-7-(p-benzyloxy-m-methoxyphenyl)-5-heptanolide] | 2.1e-05 | 1.1e-05 | 
25 | COc1cc(CCC2CC(C)(O)CC(=O)O2)ccc1OC(C)=O (stereo not drawn) [W, 3-Hydroxy-3-methyl-7-(p-acetoxy-m-methoxyphenyl)-5-heptanolide] | 4.5e-05 | 8.3e-05 | 
26 | CC1(O)CC(=O)OC(CCCc2ccc(OCc3ccccc3)cc2)C1 (stereo not drawn) [Y, 3-Hydroxy-3-methyl-8-(p-benzyloxyphenyl)-5-octanolide] | 4e-06 | 7e-06 | 
27 | CC1(O)CC(=O)OC(CCc2ccccc2)C1 (stereo not drawn) [C, 3-Hydroxy-3-methyl-7-phenyl-5-heptanolide] | 0.00036 | 4.2e-05 | 
